This passage reports inhibition results from patent US20100041597A1, “PEPTIDES TARGETED TO PROTEIN KINASE C ISOFORMS AND USES THEREOF” (priority 2005, published 2010).

The experiment addresses PKC-α (Homo sapiens, UniProt P17252). The experiment can be described thus: Kinase-Glo Luminescent Kinase Assay, substrate myelin basic protein. The following applies: for inhibition at 150 µM: PRE 4 150 μM; for inhibition at 300 µM: PRE 4 300 μM; for inhibition at 600 µM: PRE 4 600 μM. In kind it is biochemical. As to the method: The ability of peptide PRE 4 (see Table 3) to inhibit the activity of PKC-α was tested using increasing concentrations of PRE 4 and the Kinase-Glo™ Luminescent Kinase Assay (Promega, Cat # V6712/3/4) following the manufacturer's instructions. Briefly, the assay is based on the Luciferase luminescent reaction with ATP. The substrate was myelin basic protein (MBP, a classical substrate of the PKC family). ATP was added to the PKC-α reaction solution at a given concentration and the remaining ATP was measured by luminescence. Luminescence of blank solutions, ATP provided at the beginning of the reaction and PKC-α activity in the presence or absence of PRE 4 were measured.
Blanks are subtracted from all values.
ATP remaining in all reactions was subtracted from the ATP values at the start=relative enzyme activity (Ea).
The relative activities were all measured and the Ea in the presence of PRE 4 are reported relative to the Ea of PKC-α alone taken as 100. The difference between 100 and the % Ea of PKC-α exposed to PRE 4 represents the relative level of inhibition.
In general terms: Kinase-Glo reads ATP consumption through a luciferase reaction.

The inhibition is the share of the control response that was lost under treatment. As for “Ac-KDAQNLIGISI-NH2 [PRE 4, Ac-KDAQNLIGISI-NH2]”, the inhibition at 150 µM by setting is: (Experiment 1) 6.15%; (Experiment 2) 28.9%; (Experiment 3) 40.1%. The inhibition at 300 µM is, setting by setting: (Experiment 1) 9.76%; (Experiment 2) 40.7%; (Experiment 3) 35.5%. Moreover, the inhibition at 600 µM came to 16.4% (Experiment 1), 53.5% (Experiment 2) and 41.6% (Experiment 3).
